Data taken from ChEMBL document CHEMBL5126595, “Identification and anti-tumor evaluation of 3-acyl-indol-based 2,4-diarylaminopyrimidine analogues as potent ALK inhibitors capable of overcoming drug-resistant mutants” (Eur J Med Chem, 2022).
Calls of active or inactive are those of the source. No cut-off for these calls is given here.

Assays:
[1] = system: MDA-MB-231; assay: cells; details: Homo sapiens, MDA-MB-231, 72 h
[2] = target: T1, ALK tyrosine kinase receptor (Homo sapiens, UniProt Q9UM73); assay: Inhibition of ALK downstream signalling in human NCI-H2228 cells assessed as reduction in AKT level measured after 24 hrs by Western blot analysis; assay type: cell-based; details: dose 25-100 nM, DDE = dose-dependent effect
[3] = Volume of distribution at steady state in Sprague-Dawley rat at 2 mg/kg, iv by LC-MS/MS analysis; assay type: ADME, organism-based; details: in vivo, read-out: Vdss
[4] = target: ALK tyrosine kinase receptor (Homo sapiens, UniProt Q9UM73, G1202R); assay: Inhibition of N-terminal GST-tagged human ceritinib-resistant ALK G1202R mutant (1058 to 1620 residues) cytoplasmic domain expressed in baculovirus infected Sf21 cells incubated for 1 hrs in the presence of ATP by mobility shift assay
[5] = MRT in Sprague-Dawley rat at 10 mg/kg, po by LC-MS/MS analysis; assay type: ADME, organism-based; details: in vivo
[6] = system: PC-3; assay: Antiproliferative activity against human PC-3 cells assessed as inhibition of cell growth incubated for 72 hrs by MTT assay; assay type: functional, cell-based; details: PC-3, 72 h
[7] = Antiproliferative activity […] EML4-ALK-L1196M cells assessed as inhibition of cell growth incubated for 72 hrs by MTT assay; assay type: functional, cell-based
[8] = Half-life in Sprague-Dawley rat at 2 mg/kg, iv by LC-MS/MS analysis; assay type: ADME, organism-based; details: in vivo
[9] = system: NCI-H3122; assay: Antiproliferative activity against EML4-ALK positive human NC-H3122 cells assessed as inhibition of cell growth incubated for 72 hrs by MTT assay; assay type: functional, cell-based; details: NCI-H3122, 72 h
[10] = system: HT-29; assay: cells; details: Homo sapiens, HT-29, 72 h
Description: Antiproliferative activity against human HT-29 cells assessed as inhibition of cell growth incubated for 72 hrs by MTT assay

[11] = system: NCI-H2228; assay: Induction of apoptosis in human NCI-H2228 cells assessed as chromatin condensation by measuring brilliant blue fluorescence at 25 to 100 nM incubated for 48 hrs by Hoechst 33342 staining based fluorescence microscopic analysis; assay type: functional, cell-based; details: dose 25-100 nM
[12] = system: NCI-H2228; assay: Induction of apoptosis in human NCI-H2228 cells assessed as solidified nuclei at 25 to 100 nM incubated for 48 hrs by Hoechst 33342 staining based fluorescence microscopic analysis; assay type: functional, cell-based; details: dose 25-100 nM
[13] = system: NCI-H2228; assay: Induction of cell cycle arrest in human NCI-H2228 cells assessed as decrease in G2 phase cells at 50 nM incubated for 48 hrs by PI/RNase staining based flow cytometry analysis (reference value: 15.38 %); assay type: functional; set-up: scale not given: the % may be the effect or the level left
[14] = target: Epidermal growth factor receptor (Homo sapiens, UniProt P00533); assay: Inhibition of human EGFR (669 to 1210 residues) cytoplasmic domain expressed in baculovirus infected Sf21 cells incubated for 1 hrs in the presence of ATP by mobility shift assay
[15] = Metabolic stability in Sprague-Dawley rat liver microsomes assessed as half-life at 10 uM preincubated for 5 mins in the presence of NADPH followed by microsomal addition and measured upto 60 mins by HPLC analysis; assay type: ADME, Microsome; details: time < 65 min
[16] = system: NCI-H2228; assay: Inhibition of colony formation in human NCI-H2228 cells assessed as reduction in colony area incubated for 3 day by crystal violet staining based assay; assay type: functional, cell-based; details: dose 25-100 nM, DDE = dose-dependent effect
[17] = system: NCI-H2228; assay: Induction of apoptosis in human NCI-H2228 cells assessed as viable cells at 100 nM incubated for 48 hrs by AnnexinV-FITC/propidium iodide staining based flow cytometry analysis (reference value: 92.3 %); assay type: functional; details: read-out: Activity
[18] = target: T1, ALK tyrosine kinase receptor; assay: Inhibition of ALK downstream signalling in human NCI-H2228 cells assessed as reduction in phosphorylated AKT level measured after 24 hrs by Western blot analysis; assay type: cell-based; details: dose 25-100 nM, DDE = dose-dependent effect
[19] = system: NCI-H2228; assay: Induction of cell cycle arrest in human NCI-H2228 cells assessed as decrease in S phase cells at 25 nM incubated for 48 hrs by PI/RNase staining based flow cytometry analysis (reference value: 34.90 %); assay type: functional; set-up: scale not given: the % may be the effect or the level left
[20] = AUC (0 to infinity) in Sprague-Dawley rat at 2 mg/kg, iv by LC-MS/MS analysis; assay type: ADME, organism-based; set-up: time infinity, dose 2 mg/kg, route iv; details: in vivo
[21] = system: Hep 3B2; assay: cells; details: Homo sapiens, Hep3B, 72 h
Description: Antiproliferative activity against human Hep3B cells assessed as inhibition of cell growth incubated for 72 hrs by MTT assay

[22] = system: NCI-H2228; assay: Induction of apoptosis in human NCI-H2228 cells assessed as necrotic cells at 25 nM incubated for 48 hrs by AnnexinV-FITC/propidium iodide staining based flow cytometry analysis (reference value: 0.55 %); assay type: functional
[23] = Half-life in Sprague-Dawley rat at 10 mg/kg, po by LC-MS/MS analysis; assay type: ADME, organism-based; details: in vivo
[24] = system: NCI-H2228; assay: Induction of apoptosis in human NCI-H2228 cells assessed as total apoptotic cells at 50 nM incubated for 48 hrs by AnnexinV-FITC/propidium iodide staining based flow cytometry analysis; assay type: functional
[25] = system: KARPAS-299; assay: Antiproliferative activity against NPM-ALK positive human KARPAS-299 cells assessed as inhibition of cell growth incubated for 72 hrs by MTT assay; assay type: functional, cell-based; details: KARPAS-299, 72 h
[26] = system: NCI-H2228; assay: Antitumor activity against human NCI-H2228 cells xenografted in BALB/c nude mouse assessed as tumor growth inhibition at 50 mg/kg, IG administered every 2 days for 7 times relative to control; assay type: functional; details: NCI-H2228, po, 336 h, time 14 day, read-out: TGI
[27] = system: NCI-H2228; assay: Antitumor activity against human NCI-H2228 cells xenografted in BALB/c nude mouse assessed as tumor regression at 25 mg/kg, IG administered every 2 days for 4 times; assay type: functional, organism-based; details: time 8.0 day
[28] = Antiproliferative activity […] EML4-ALK-G1202R cells assessed as inhibition of cell growth incubated for 72 hrs by MTT assay; assay type: functional, cell-based
[29] = system: NCI-H2228; assay: Induction of apoptosis in human NCI-H2228 cells assessed as necrotic cells at 50 nM incubated for 48 hrs by AnnexinV-FITC/propidium iodide staining based flow cytometry analysis (reference value: 0.55 %); assay type: functional
[30] = system: BaF3; assay: Antiproliferative activity IL3 […] Ba/F3 cells assessed as inhibition of cell growth incubated for 72 hrs by MTT assay; assay type: functional, cell-based; details: Mus musculus, BaF3, 72 h
[31] = system: NCI-H1581; assay: Antiproliferative activity against human NC-H1581 cells assessed as inhibition of cell growth incubated for 72 hrs by MTT assay; assay type: functional, cell-based; details: NCI-H1581, 72 h
[32] = system: MCF7; assay: cells; details: Homo sapiens, MCF7, 72 h
Description: Antiproliferative activity against human MCF7 cells assessed as inhibition of cell growth incubated for 72 hrs by MTT assay

[33] = system: A549; assay: Antiproliferative activity against EGFR positive human A549 cells assessed as inhibition of cell growth incubated for 72 hrs by MTT assay; assay type: functional, cell-based; details: A549, 72 h
[34] = Metabolic stability in Sprague-Dawley rat liver microsomes assessed as parent compound remaining preincubated for 5 mins in the presence of NADPH followed by microsomal addition and measured upto 60 mins by HPLC analysis; assay type: ADME, Microsome; details: time < 65 min, read-out: Stability
[35] = system: NCI-H2228; assay: Induction of apoptosis in human NCI-H2228 cells assessed as late apoptotic cells at 25 nM incubated for 48 hrs by AnnexinV-FITC/propidium iodide staining based flow cytometry analysis (reference value: 4.72 %); assay type: functional

T1 sequence (Q9UM73 19-1620 limits assumed): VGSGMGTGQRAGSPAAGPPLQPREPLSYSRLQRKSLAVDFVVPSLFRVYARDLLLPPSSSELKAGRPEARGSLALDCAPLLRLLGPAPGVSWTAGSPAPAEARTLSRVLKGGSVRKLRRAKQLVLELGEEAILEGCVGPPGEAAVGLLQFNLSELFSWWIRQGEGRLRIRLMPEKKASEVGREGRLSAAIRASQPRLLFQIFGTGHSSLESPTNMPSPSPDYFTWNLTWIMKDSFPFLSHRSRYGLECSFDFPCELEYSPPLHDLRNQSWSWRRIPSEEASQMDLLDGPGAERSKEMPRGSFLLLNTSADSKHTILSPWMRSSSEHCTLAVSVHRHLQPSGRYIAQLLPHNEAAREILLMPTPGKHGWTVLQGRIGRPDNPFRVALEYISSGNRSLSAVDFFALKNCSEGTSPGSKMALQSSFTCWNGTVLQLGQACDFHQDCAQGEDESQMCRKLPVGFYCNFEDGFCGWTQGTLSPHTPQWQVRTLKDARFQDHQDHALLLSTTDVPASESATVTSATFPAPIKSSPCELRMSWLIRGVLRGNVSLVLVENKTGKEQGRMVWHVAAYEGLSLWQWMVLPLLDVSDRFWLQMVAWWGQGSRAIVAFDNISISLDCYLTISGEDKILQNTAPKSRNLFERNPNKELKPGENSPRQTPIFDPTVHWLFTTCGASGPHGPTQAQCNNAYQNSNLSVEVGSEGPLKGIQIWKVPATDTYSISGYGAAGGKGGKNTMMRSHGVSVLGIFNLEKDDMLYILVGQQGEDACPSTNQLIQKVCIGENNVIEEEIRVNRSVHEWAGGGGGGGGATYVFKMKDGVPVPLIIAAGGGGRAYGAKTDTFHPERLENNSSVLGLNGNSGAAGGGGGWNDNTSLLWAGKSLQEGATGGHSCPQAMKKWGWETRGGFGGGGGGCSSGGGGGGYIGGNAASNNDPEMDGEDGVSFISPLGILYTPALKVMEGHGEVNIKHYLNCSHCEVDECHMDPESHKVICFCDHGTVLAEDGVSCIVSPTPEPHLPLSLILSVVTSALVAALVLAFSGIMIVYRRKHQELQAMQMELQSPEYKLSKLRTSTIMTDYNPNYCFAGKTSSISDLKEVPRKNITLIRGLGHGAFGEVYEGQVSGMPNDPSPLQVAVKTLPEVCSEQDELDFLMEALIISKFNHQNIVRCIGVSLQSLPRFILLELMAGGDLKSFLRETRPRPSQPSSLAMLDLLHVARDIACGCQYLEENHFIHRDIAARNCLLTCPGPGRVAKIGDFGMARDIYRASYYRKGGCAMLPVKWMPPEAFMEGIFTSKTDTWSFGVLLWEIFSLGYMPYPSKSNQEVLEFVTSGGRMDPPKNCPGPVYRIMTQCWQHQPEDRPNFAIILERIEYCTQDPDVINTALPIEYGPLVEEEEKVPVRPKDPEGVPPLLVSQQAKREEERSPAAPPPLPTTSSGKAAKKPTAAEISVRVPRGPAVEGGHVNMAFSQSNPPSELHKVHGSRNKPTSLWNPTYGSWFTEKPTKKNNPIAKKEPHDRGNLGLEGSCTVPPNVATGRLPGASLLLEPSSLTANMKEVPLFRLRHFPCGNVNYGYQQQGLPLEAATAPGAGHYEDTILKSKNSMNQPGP
Chain of Epidermal growth factor receptor (P00533 whole entry, the tested form may be a part): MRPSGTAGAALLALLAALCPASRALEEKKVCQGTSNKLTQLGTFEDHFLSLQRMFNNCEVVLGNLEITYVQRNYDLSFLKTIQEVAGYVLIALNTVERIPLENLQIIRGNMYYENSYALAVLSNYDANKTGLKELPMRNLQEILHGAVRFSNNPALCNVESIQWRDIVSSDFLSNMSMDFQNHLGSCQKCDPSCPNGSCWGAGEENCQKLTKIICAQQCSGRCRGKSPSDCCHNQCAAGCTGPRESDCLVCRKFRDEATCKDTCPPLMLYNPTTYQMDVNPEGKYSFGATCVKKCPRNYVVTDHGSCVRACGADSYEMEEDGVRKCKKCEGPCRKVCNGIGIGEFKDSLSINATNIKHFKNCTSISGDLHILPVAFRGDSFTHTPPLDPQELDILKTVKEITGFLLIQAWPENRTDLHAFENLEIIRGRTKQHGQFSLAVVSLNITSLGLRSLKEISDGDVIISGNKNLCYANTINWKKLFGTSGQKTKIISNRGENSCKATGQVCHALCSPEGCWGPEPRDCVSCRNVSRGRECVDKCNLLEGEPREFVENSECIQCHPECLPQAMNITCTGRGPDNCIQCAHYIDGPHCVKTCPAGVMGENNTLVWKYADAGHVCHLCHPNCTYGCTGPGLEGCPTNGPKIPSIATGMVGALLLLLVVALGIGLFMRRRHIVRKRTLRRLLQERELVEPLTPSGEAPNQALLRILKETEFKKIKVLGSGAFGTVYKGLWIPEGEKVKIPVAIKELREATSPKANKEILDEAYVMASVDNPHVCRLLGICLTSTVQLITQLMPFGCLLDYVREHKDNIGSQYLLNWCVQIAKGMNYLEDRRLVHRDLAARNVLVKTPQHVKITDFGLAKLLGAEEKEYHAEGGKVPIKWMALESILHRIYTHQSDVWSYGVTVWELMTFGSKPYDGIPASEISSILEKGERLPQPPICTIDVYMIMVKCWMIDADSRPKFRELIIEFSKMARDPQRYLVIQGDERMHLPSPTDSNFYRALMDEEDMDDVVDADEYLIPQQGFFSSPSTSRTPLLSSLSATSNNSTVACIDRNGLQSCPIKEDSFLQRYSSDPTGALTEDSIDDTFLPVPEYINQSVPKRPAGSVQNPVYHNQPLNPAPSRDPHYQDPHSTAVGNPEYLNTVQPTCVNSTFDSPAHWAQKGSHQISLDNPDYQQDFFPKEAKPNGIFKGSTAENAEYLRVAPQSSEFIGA
Chain of ALK tyrosine kinase receptor (Homo sapiens, UniProt Q9UM73, G1202R) (Q9UM73 19-1620 G1202R limits assumed): as the sequence (Q9UM73 19-1620 limits assumed) above, with G1184R counted along it

CNC(=O)c1ccccc1Nc1nc(Nc2ccc3c(C(=O)N(C)C)c(C)[nH]c3c2)ncc1Cl
IC50 [1]: 1.88 µM | inhibition [2]: Dde | Vd [3]: 7.9 L/kg | IC50 [4]: 0.0029 µM | MRT [5]: 6.6 h | IC50 [6]: 1.38 µM | IC50 [7]: 0.021 µM | half-life [8]: 2.5 h | IC50 [9]: 0.027 µM | IC50 [10]: 2.01 µM | Activity [11]: Active | Activity [12]: Active | Activity [13]: 13.28% | IC50 [14]: > 1 µM | half-life at 10 µM [15]: 0.603 h | inhibition [16]: Dde | viability at 0.1 µM [17]: 68.6% | inhibition [18]: Dde | Activity [19]: 34.73% | AUC(0-inf) [20]: 0.922 µg·h/mL | IC50 [21]: 0.059 µM | Activity [22]: 1.68% | half-life [23]: 4.1 h | Activity [24]: 23.94% | IC50 [25]: 0.011 µM | inhibition in vivo at 50 mg/kg [26]: 93.5% | Activity [27]: Active | IC50 [28]: 0.015 µM | Activity [29]: 1.66% | IC50 [30]: > 1 µM | IC50 [31]: 0.957 µM | IC50 [32]: 2.16 µM | IC50 [33]: 2.39 µM | remaining at 1 h [34]: 29.7% | Activity [35]: 10.5%
